“Also recorded” adds a separate entry of the source.
Key:
[1] = system: probasin luciferase reporter gene; test: Ligand dependent transcription assay, CV1 cells with probasin reporter gene and control plasmid, no AR (pPBluc); format: cell-based, rat
Experimental: Ligand dependent transcription assays were performed as described in Schnmidt et al. "Identification of a new member of the steroid hormone receptor superfamily that is activated by a peroxisome proliferator and fatty acids," Mol. Endocrinol. […] A luciferase cDNA expressed under the control of the promoter region of the probasin gene that confers androgen receptor dependent transcription was used as a reporter gene, see Rennie et al. "Characterization of two cis-acting DNA elements involved in the androgen regulation of the probasin gene" Mol Endocrinol. […] Transient transfection of CV1 cells was performed by plating cells (1.5×10^5 per mL) into 12 well dishes in phenol red-free medium supplemented with 10% fetal calf serum treated with activated charcoal to remove endogenous steroids. Cells were then transfected the following day by addition of a calcium phosphate precipitate of plasmid DNA. Cells were then washed with fresh media after an overnight incubation and ligands were added. Cell extracts were prepared after forty eight hours and assayed for luciferase enzyme activity using the Luciferase Assay System (Promega). Each transfection was performed in triplicate and the […] of each sample was measured using the AutoChemiluminometer (Berthold).

DDT1 cells = test: DDT1 Assay: androgen (testosterone) dependent growth of DDT1 cells, MTS proliferation; format: cell-based, Syrian hamster
Experimental: Cells were plated in a 96 well plate at 2,000 cells/well in DFITS+0.1% fetal calf serum. […] Cell growth data were normalized to the greatest number of cells and error bars represent +/- one standard error of the mean (sem).
Media was charged every 48 hours. Cells were plated at ~2,000/well in 96-well plates or ~6,000 cells/cm^2 in DMEM: F12 (GIBCO BRL) nutrient mixture (1:)+ITS™ (insulin, transferrin, selenious acid) (Collaborative Biomedical Products/Becton Dickinson Labware) (final concentrations 5 μg/mL insulin, 5 μ/mL transferrin, 5 ng/mL selenious acid) (DFITS media)+0.1% bovine calf serum (Hyclon®, BCS defined, iron supplemented).
After 24 hours, the cells were washed with the same media except without added serum and replaced with fresh serum-free DFITS medium (day 0).
In a typical experiment, cells were plated in sets of 12 in the presence of either a mock ethanol control (0.1-0.2% total volume) or N-(4-chlorophenyl)-(Z,Z)-2,3-bis(cyclopropylmethylene) cyclopentane carboxamide dissolved in 100% ethanol as a 1000X concentrated stock solution. Cell growth was then measured using a CellTiter96™ Non-Radioactive Cell Proliferation Assay (Promega Corporation) according to the manufacturer's protocol using a Bio Kinetics EL 340 microplate reader (BioTek Instruments, Inc.). 3-(4,5-dimethylthiazol-2-yl)-5-(3-carboxyl methoxyphenyl)-2-(4-sulfophenyl)-2H-tetrazolium (MTS) was diluted into media at a final concentration of 333 μg/mL and penazine methosulfate (PMS) was used at a final concentration of 25 μM with a total volume per well of 100 μL. Plates were then incubated for one hour at 37° C. in a humidified 5% CO2 atmosphere.

androgen receptor [2] = molecular target: T1, androgen receptor (Homo sapiens, UniProt P10275); test: Binding to the human androgen receptor (hAR), displacement of [3H]-DHT, stable CHO transfectants; parameters: expressed in transfected cells; cytosol, 100,000×g supernatant; conditions: stable transfectants of CHO cells
T1 sequence (P10275 1-920): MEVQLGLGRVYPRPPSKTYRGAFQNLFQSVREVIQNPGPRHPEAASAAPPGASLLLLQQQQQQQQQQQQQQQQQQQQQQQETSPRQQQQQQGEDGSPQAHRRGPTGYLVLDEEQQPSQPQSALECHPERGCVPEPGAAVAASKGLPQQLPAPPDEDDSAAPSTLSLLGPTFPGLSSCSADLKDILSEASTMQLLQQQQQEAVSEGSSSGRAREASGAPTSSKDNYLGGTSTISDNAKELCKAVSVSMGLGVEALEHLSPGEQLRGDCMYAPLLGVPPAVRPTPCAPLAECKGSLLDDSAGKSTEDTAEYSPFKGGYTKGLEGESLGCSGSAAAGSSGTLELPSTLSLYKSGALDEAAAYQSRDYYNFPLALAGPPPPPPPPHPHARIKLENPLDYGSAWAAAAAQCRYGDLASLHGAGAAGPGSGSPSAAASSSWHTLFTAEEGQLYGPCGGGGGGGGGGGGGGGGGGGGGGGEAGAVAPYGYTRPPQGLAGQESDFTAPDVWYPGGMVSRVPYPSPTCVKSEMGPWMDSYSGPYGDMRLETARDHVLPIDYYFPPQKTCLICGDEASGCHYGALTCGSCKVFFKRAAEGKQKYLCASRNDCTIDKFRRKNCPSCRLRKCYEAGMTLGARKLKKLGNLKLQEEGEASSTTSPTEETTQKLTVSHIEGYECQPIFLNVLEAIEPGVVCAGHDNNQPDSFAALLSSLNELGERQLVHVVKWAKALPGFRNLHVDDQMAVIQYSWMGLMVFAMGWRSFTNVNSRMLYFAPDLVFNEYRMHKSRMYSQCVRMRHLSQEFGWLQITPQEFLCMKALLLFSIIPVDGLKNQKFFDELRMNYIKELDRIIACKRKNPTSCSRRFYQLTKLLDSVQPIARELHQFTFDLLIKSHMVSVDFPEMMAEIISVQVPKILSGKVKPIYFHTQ
Experimental: Binding to the Androgen Receptor
All samples were prepared in duplicate. […] Free steroids were removed by addition of dextran-coated charcoal followed by centrifugation at 3,000×g for fifteen minutes at 4° C.
47: 1080-1088 (1995) except that stable transfectants of CHO cells were employed (gift from Prof. Michael McPhaul Southwestern Medical Center, Dallas, Tex.) that typically express 30-80 fmoles receptor/mg soluble protein.

androgen receptor [3] = molecular target: T1, androgen receptor; test: Ligand dependent transcription assay, CV1 cells co-transfected with AR and probasin luciferase reporter (pPBluc + AR); format: cell-based; parameters: expressed in transfected cells; host or cells: CV1 cells, transient co-transfection of pSGAR with the probasin-luciferase reporter pPBluc
Experimental: FIG. 2 is a graph showing the effect of N-(4-chlorophenyl)-(Z,Z)-2,3-bis(cyclopropyl-methylene)cyclopentane carboxamide on the activation of the androgen receptor in CV1 cells, as described in Example 4.
Ligand dependent transcription assays were performed as described in Schnmidt et al. "Identification of a new member of the steroid hormone receptor superfamily that is activated by a peroxisome proliferator and fatty acids," Mol. Endocrinol. 6:1634-1641 (1992). A luciferase cDNA expressed under the control of the promoter region of the probasin gene that confers androgen receptor dependent transcription was used as a reporter gene, see Rennie et al. "Characterization of two cis-acting DNA elements involved in the androgen regulation of the probasin gene" Mol Endocrinol. 7:23-36 (1993). The promoter region, -426 to +40 of the rat probasin gene was amplified by polymerase chain reaction (PCR) and inserted upstream of the luciferase cDNA of pGL3 Basic plasmid (Promega). The expression vector pSGAR that expressed the normal human AR was used as a source of receptor, see, Chang et al. "Molecular cloning of human and rat complementary DNA encoding androgen receptors," Science 240:324-326 (1988). Transient transfection of CV1 cells was performed by plating cells (1.5×10^5 per mL) into 12 well dishes in phenol red-free medium supplemented with 10% fetal calf serum treated with activated charcoal to remove endogenous steroids. Cells were then transfected the following day by addition of a calcium phosphate precipitate of plasmid DNA. Cells were then washed with fresh media after an overnight incubation and ligands were added. Cell extracts were prepared after forty eight hours and assayed for luciferase enzyme activity using the Luciferase Assay System (Promega). Each transfection was performed in triplicate and the […] of each sample was measured using the AutoChemiluminometer (Berthold).

Structure (SMILES)	pPBluc, Light Units ± std ([1]; DHT 10^-7 M) [Light Units]	pPBluc, Light Units ± std ([1]; DHT 10^-9 M) [Light Units]	antagonism of the action of testosterone on DDT1 cells (DDT1 cells)	inhibition of testosterone-induced DDT1 cell growth, comparison with hydroxyflutamide (DDT1 cells)	effect on testosterone-induced cell proliferation (DDT1 cells; compound at 10 μM with 10 nM testosterone)	effect on cell proliferation, compound alone (DDT1 cells; without testosterone, serum-free medium)	blocking of the binding of 3H-DHT (androgen receptor [2])	inhibition of transactivation mediated by DHT (androgen receptor [3]; CV1 cells, 10 nM DHT)	luciferase expression from the pPBluc reporter gene, compound alone (androgen receptor [3]; CV1 cells, without DHT)	IC50 (androgen receptor [3]; read-out: Fifty percent inhibition of transactivation) [µM]
C[C@]12CCC(=O)C[C@@H]1CC[C@@H]1[C@@H]2CC[C@]2(C)[C@@H](O)CC[C@@H]12 [DHT, 5α-dihydrotestosterone]	3300 ± 1100	3000 ± 300								
O=C(Nc1ccc(Cl)cc1)C1CCC(=C/C2CC2)/C1=C\C1CC1 (stereo not shown) [N-(4-chlorophenyl)-(Z,Z)-2,3-bis(cyclopropylmethylene)cyclopentane carboxamide]			antagonizes the action of testosterone on DDT1 cells	inhibits testosterone-induced DDT1 cell growth in a manner similar to that of hydroxyflutamide	reduced cell proliferation to levels close to that of the ethanol mock control	little or no effect on cell growth by itself; also recorded: little or no effect on cell proliferation	blocks the binding of ^3 H-DHT to the human androgen receptor expressed in stable transfectants of CHO cells at doses comparable to those that antagonize testosterone in DDT1 cells	inhibited the transactivation mediated by DHT in a dose dependent manner	did not affect luciferase expression	~2
